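Where inhibition never reached the appropriate level, the endpoint shown equals the highest concentration tested. Otherwise, values were interpolated linearly from a five-concentration, 48-hour dose response in 96-well plates. GI50 = concentration required for 50% inhibition of growth.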 Activity calls are given as the source filed them. Rule as the data show it: active = GI50 up to about 1.1 µM and inactive = higher.
Assays:
Assay in all cases: NCI anticancer screen, dose series, 48 h
SR = test system: SR
BT-549 = test system: BT-549
K562 = test system: K562
SK-MEL-5 = test system: SK-MEL-5
SF-539 = test system: SF-539
LOX IMVI = test system: LOX IMVI
UACC-257 = test system: UACC-257
OVCAR-4 = test system: OVCAR-4
SK-OV-3 = test system: SK-OV-3
T47D = test system: T47D
SN12C = test system: SN12C
SNB-75 = test system: SNB-75
Hs-578T = test system: Hs-578T
HT-29 = test system: HT-29
Malme-3M = test system: Malme-3M
SK-MEL-2 = test system: SK-MEL-2
OVCAR-5 = test system: OVCAR-5
EKVX = test system: EKVX
786-0 = test system: 786-0
SNB-78 = test system: SNB-78

Structure (SMILES)	GI50 (SR)	GI50 (BT-549)	GI50 (K562)	GI50 (SK-MEL-5)	GI50 (SF-539)	GI50 (LOX IMVI)	GI50 (UACC-257)	GI50 (OVCAR-4)	GI50 (SK-OV-3)	GI50 (T47D)	GI50 (SN12C)	GI50 (SNB-75)	GI50 (Hs-578T)	GI50 (HT-29)	GI50 (Malme-3M)	GI50 (SK-MEL-2)	GI50 (OVCAR-5)	GI50 (EKVX)	GI50 (786-0)	GI50 (SNB-78)
O=S1(=O)C(c2ccccc2)C(N2CCCCC2)C1C1CC2c3ccccc3C1c1ccccc12 (stereo unspecified)	5.93 µM (inactive)	> 100 µM (inactive)	5.56 µM (inactive)	45.1 µM (inactive)	> 100 µM (inactive)	> 100 µM (inactive)	> 92.7 µM (inactive)	7.98 µM (inactive)	> 100 µM (inactive)	10.4 µM (inactive)	> 35.8 µM (inactive)	> 100 µM (inactive)	> 100 µM (inactive)	10.6 µM (inactive)	> 100 µM (inactive)	> 100 µM (inactive)	> 100 µM (inactive)	> 100 µM (inactive)	> 100 µM (inactive)	–
O=C1CSC2(CC(/C=C/c3cccc([N+](=O)[O-])c3)=NN2c2cccc(S(=O)(=O)O)c2)N1c1nc2ccccc2s1 (stereo unspecified)	19.6 µM (inactive)	16.3 µM (inactive)	28.6 µM (inactive)	28.1 µM (inactive)	29.6 µM (inactive)	13.6 µM (inactive)	38.9 µM (inactive)	25.2 µM (inactive)	–	24.6 µM (inactive)	22.4 µM (inactive)	20 µM (inactive)	55.3 µM (inactive)	31.4 µM (inactive)	51.3 µM (inactive)	22.9 µM (inactive)	23.4 µM (inactive)	44.8 µM (inactive)	18 µM (inactive)	–
COC(=O)[C@@H](NC1(c2ccccc2)c2ccccc2-c2ccccc21)[C@@H](C(=O)OC)N(NC(=O)OCc1ccccc1)C(=O)OCc1ccccc1.COC(=O)[C@@H](NC1(c2ccccc2)c2ccccc2-c2ccccc21)[C@H](C(=O)OC)N(NC(=O)OCc1ccccc1)C(=O)OCc1ccccc1	> 100 µM (inactive)	> 100 µM (inactive)	> 100 µM (inactive)	> 100 µM (inactive)	> 100 µM (inactive)	> 100 µM (inactive)	> 100 µM (inactive)	> 100 µM (inactive)	> 100 µM (inactive)	> 100 µM (inactive)	> 100 µM (inactive)	–	> 100 µM (inactive)	> 100 µM (inactive)	27.4 µM (inactive)	> 100 µM (inactive)	> 100 µM (inactive)	21.4 µM (inactive)	> 100 µM (inactive)	–
COC(=O)C1=COC2OC3CC1C2C(C)O3 (stereo unspecified)	> 100 µM (inactive)	> 100 µM (inactive)	–	> 100 µM (inactive)	> 100 µM (inactive)	> 100 µM (inactive)	> 100 µM (inactive)	> 100 µM (inactive)	> 100 µM (inactive)	> 100 µM (inactive)	> 100 µM (inactive)	–	> 100 µM (inactive)	> 100 µM (inactive)	> 100 µM (inactive)	> 100 µM (inactive)	> 100 µM (inactive)	> 100 µM (inactive)	> 100 µM (inactive)	–
O=C1c2ccccc2C(=O)c2c(OCCOCCO)cccc21	66.7 µM (inactive)	> 100 µM (inactive)	> 100 µM (inactive)	44.2 µM (inactive)	45.3 µM (inactive)	50.2 µM (inactive)	> 100 µM (inactive)	72.9 µM (inactive)	> 100 µM (inactive)	49.4 µM (inactive)	0.714 µM (active)	> 100 µM (inactive)	20.5 µM (inactive)	63.4 µM (inactive)	74.3 µM (inactive)	> 100 µM (inactive)	> 100 µM (inactive)	> 100 µM (inactive)	> 100 µM (inactive)	–
Nc1nc(Cl)cc(NCC2(CO)CC(CCc3ccccc3)C2)n1 (stereo unspecified)	1.31 µM (inactive)	> 32.8 µM (inactive)	1.42 µM (inactive)	0.506 µM (active)	> 100 µM (inactive)	3.26 µM (inactive)	0.461 µM (active)	> 29.3 µM (inactive)	> 100 µM (inactive)	0.542 µM (active)	> 100 µM (inactive)	20.3 µM (inactive)	> 59.4 µM (inactive)	> 46 µM (inactive)	> 100 µM (inactive)	97.9 µM (inactive)	> 100 µM (inactive)	2.83 µM (inactive)	> 71.8 µM (inactive)	–
Cc1ccc(C2SC(=N)Nc3c2c(C)nn3C(=O)c2ccncc2)cc1 (stereo unspecified)	> 10 µM (inactive)	> 10 µM (inactive)	> 10 µM (inactive)	> 10 µM (inactive)	> 10 µM (inactive)	> 10 µM (inactive)	> 10 µM (inactive)	> 10 µM (inactive)	> 10 µM (inactive)	> 10 µM (inactive)	> 10 µM (inactive)	> 10 µM (inactive)	> 10 µM (inactive)	> 10 µM (inactive)	> 10 µM (inactive)	> 10 µM (inactive)	> 10 µM (inactive)	–	> 10 µM (inactive)	–
COc1cc2c3c(c4ccc(O)cc4c2cc1OC)[C@@H](O)[C@@H]1CCCN1C3	< 0.001 µM (active)	0.00168 µM (active)	0.00203 µM (active)	< 0.001 µM (active)	< 0.001 µM (active)	< 0.001 µM (active)	0.00121 µM (active)	< 0.001 µM (active)	0.00105 µM (active)	< 0.001 µM (active)	< 0.001 µM (active)	< 0.001 µM (active)	< 0.001 µM (active)	0.00233 µM (active)	< 0.001 µM (active)	< 0.001 µM (active)	< 0.001 µM (active)	< 0.001 µM (active)	< 0.001 µM (active)	–
COc1ccc(-c2c(-c3ccccc3)c(C)nc3nc(SC)nc(SC)c23)cc1OC	0.565 µM (active)	24.8 µM (inactive)	4.54 µM (inactive)	4.76 µM (inactive)	5.2 µM (inactive)	11.4 µM (inactive)	21.5 µM (inactive)	–	3.72 µM (inactive)	13 µM (inactive)	7.4 µM (inactive)	16.1 µM (inactive)	5.05 µM (inactive)	5.71 µM (inactive)	10.1 µM (inactive)	17.1 µM (inactive)	12.4 µM (inactive)	15.6 µM (inactive)	–	–
Nc1nccc2c1ncn2[C@H]1C[C@H](O)[C@@H](CO)O1	> 100 µM (inactive)	> 100 µM (inactive)	> 100 µM (inactive)	> 100 µM (inactive)	–	> 100 µM (inactive)	> 100 µM (inactive)	> 100 µM (inactive)	> 100 µM (inactive)	> 100 µM (inactive)	> 100 µM (inactive)	> 100 µM (inactive)	> 100 µM (inactive)	> 100 µM (inactive)	> 100 µM (inactive)	> 100 µM (inactive)	> 100 µM (inactive)	–	–	–
N#C/C(=C\c1ccc(C(O)P(=O)(O)O)cc1)C(N)=O (stereo unspecified)	–	–	> 100 µM (inactive)	> 100 µM (inactive)	35.3 µM (inactive)	> 100 µM (inactive)	> 100 µM (inactive)	> 100 µM (inactive)	> 100 µM (inactive)	–	> 100 µM (inactive)	–	–	> 100 µM (inactive)	> 100 µM (inactive)	> 100 µM (inactive)	–	> 100 µM (inactive)	29.8 µM (inactive)	> 100 µM (inactive)
CN1C(=O)C2C=C3CCCCC3=CC2N(C)C1=O (stereo unspecified)	> 100 µM (inactive)	> 100 µM (inactive)	> 100 µM (inactive)	> 100 µM (inactive)	> 100 µM (inactive)	> 100 µM (inactive)	> 100 µM (inactive)	> 100 µM (inactive)	> 100 µM (inactive)	> 100 µM (inactive)	> 100 µM (inactive)	> 100 µM (inactive)	> 100 µM (inactive)	> 100 µM (inactive)	> 100 µM (inactive)	> 100 µM (inactive)	> 100 µM (inactive)	77.4 µM (inactive)	–	–
O=S(=O)(N/C(=N\O)Nc1ccc(Cl)cc1)c1ccccc1	1.15 µM (inactive)	12.6 µM (inactive)	6.64 µM (inactive)	9.04 µM (inactive)	4.22 µM (inactive)	13.4 µM (inactive)	10.5 µM (inactive)	2.33 µM (inactive)	27.9 µM (inactive)	2.74 µM (inactive)	11.7 µM (inactive)	1.71 µM (inactive)	6.46 µM (inactive)	16.1 µM (inactive)	4.34 µM (inactive)	11.6 µM (inactive)	14.5 µM (inactive)	10.3 µM (inactive)	1.87 µM (inactive)	–
OCC1OC(OCC(O)C(O)C(O)C(/C=N/Nc2ccccc2)=N/Nc2ccccc2)C(O)C(O)C1O (stereo unspecified)	> 100 µM (inactive)	> 100 µM (inactive)	–	> 100 µM (inactive)	79.3 µM (inactive)	13.2 µM (inactive)	> 100 µM (inactive)	–	> 100 µM (inactive)	17 µM (inactive)	> 100 µM (inactive)	> 100 µM (inactive)	> 100 µM (inactive)	> 100 µM (inactive)	85.5 µM (inactive)	–	> 100 µM (inactive)	> 100 µM (inactive)	> 100 µM (inactive)	–
Cc1ccc(S(=O)(=O)C2=Cc3ccc(C(F)(F)F)cc3C2(O)c2cccc(C(F)(F)F)c2)cc1 (stereo unspecified)	2.43 µM (inactive)	2.06 µM (inactive)	1.99 µM (inactive)	1.88 µM (inactive)	1.95 µM (inactive)	1.91 µM (inactive)	1.85 µM (inactive)	1.85 µM (inactive)	10.2 µM (inactive)	3.1 µM (inactive)	1.88 µM (inactive)	2.93 µM (inactive)	3.13 µM (inactive)	2.19 µM (inactive)	2.02 µM (inactive)	1.82 µM (inactive)	2.08 µM (inactive)	2.87 µM (inactive)	1.93 µM (inactive)	–
